In US12593844B2, “Method and compounds to induce plant tolerance against arthropod pests” (Universiteit Gent, priority 2018, dated 2026):
Read-outs that look alike come from different tables or passages of the source.

Columns and labels:
[1] = tested on: lignification in the Casparian strip; details: five day old seedlings grown in vitro, continuous exposure to 10 μM; Van de Wouwer et al., 2016; cited from earlier work
C4H gene = C4H gene expression in root system of rice plants after foliar treatment; format: in vivo, Oryza sativa cv. Bomba; details: fourteen-day old rice plants, foliar treatment 24 and 3 hours prior to harvest, 100 μM
From the text: Techniques for measuring and determining the (effect on) activity of C4H are well known to the one of ordinary skill in the art. Useful methods to determine inhibition of C4H activity are (incorporated by reference): • Measurement of the conversion efficiency of trans-cinnamic acid labeled with ^13C or ^14C in the presence of a potential C4H inhibitor in plant cell cultures or in yeast microsomes in which the CYP73A1 is expressed (as described in Schoch et al. 2002; Van de Wouwer et al. 2016; Schalk et al. 1998). Representative inhibition kinetics values obtained in cell suspensions for both competitive and irreversible C4H inhibitors can be found in Table 1 in Schoch et al., 2002 (incorporated by reference). • Inhibition of the C4H enzyme increases the concentration of free trans-cinnamic acid, which is rapidly conjugated in planta. The accumulation of trans-cinnamic acid amino acid conjugates, which can be quantified using HPLC-MS, can be used as a proxy measure for C4H inhibition in planta. This approach is outlined in Steenackers et al. 2016. […] Representative values for the increase in the quantity of trans-cinnamic acid conjugates are found in Supplemental Figure S2 in Steenackers et al. 2016 (incorporated by reference). • Inhibition of the C4H enzyme causes a compensatory upregulation of the C4H gene, as shown in Example 20. […]

[2] = tested on: Arabidopsis thaliana seedlings; details: continuous exposure of seedlings; Steenackers et al. 2016; read-out: IC50-root (dose required to reduce primary root elongation by 50%); cited from earlier work
Spodoptera exigua = assay: Acute (direct) toxicity to Spodoptera exigua L3 larvae; format: in vivo; details: 300 μM, out of 30 larvae (control 29)
Procedure: Spodoptera exigua—S. exigua was reared on an artificial diet in a 24° C. incubator. Recently molted L3 larvae were placed in petri dishes containing tissue paper and 2 g of artificial feed pellets. Both tissue paper and pellets were wetted with 10 ml of either distilled water or distilled water containing 300 μM PA. Twenty-four and seventy-two hours later, the number of surviving caterpillars was counted. A caterpillar was considered alive if it was either actively moving, or if it moved when gently prodded. It was also recorded whether a caterpillar was feeding (present on a feed pellet) to measure whether PA-treated feed pellets were repellent to the caterpillar.
S. exigua—Direct toxicity of piperonylic acid (PA) was determined using the protocol outlined in the materials and methods section. Briefly, 30 recently molted L3 larvae were placed per petri dish containing tissue paper and food pellets that had been wetted with either a 300 μM piperonylic acid solution or a water control.

Rhopalosiphum padi [3] = assay: Bird cherry-oat aphid reproduction on wheat, second experiment (synchronized aphids); format: in vivo; details: 300 μM foliar spray, ten days
Procedure: (§1) Winter wheat (cv. Sahara) seeds were obtained from Aveve Agrarisch (Landen, Belgium). Seeds were washed with a 10% ethanol solution to remove residual fungicide traces and then germinated on wet paper at room temperature. Seedlings were transferred to potting soil and placed in a growth chamber at 22° C. with 16 hours per day of fluorescent light.
(§2) A 100 mM piperonylic acid stock was prepared by dissolving piperonylic acid (Sigma-Aldrich, Saint-Louis, USA) in DMSO (Duchefa Biochemie, Haarlem, the Netherlands). Before use, this stock solution was diluted with distilled water to a concentration of 300 μM and mixed with 0.1 v/v % Tween 20. Working solutions of 1000 μM PA (Aculops experiment) were prepared in a similar manner from a 300 mM stock solution. The resulting spraying solution was applied to plants until run-off using an atomizer. As a control, a solution consisting of an equivalent amount of DMSO and Tween 20 was used in the same manner. […]
(§3) In the second experiment, R. padi aphids were reared on barley plants grown at room temperature. […] Twenty-four hours later, the number of remaining adults on each pot was recorded. Ten days later, the number of aphids in each pot was counted. The reproductive factor was calculated by dividing the number of aphids counted after ten days by the number of remaining adult females twenty-four hours after inoculation.

[4] = tested on: Frankliniella occidentalis; assay: Western flower thrips progeny on pepper plants; format: in vivo; details: 300 μM, progeny counted three days after four-day infestation with ten adults (control 19.0±1.84)
Procedure: Pepper seedlings (cv. Cayenne long slim) were transferred to individual pots with potting soil two weeks after sowing. Plants were maintained in a growth room (25° C., 16:8 L:D) for two additional weeks. Plants were removed from the soil and placed with their roots in water (to accommodate the Plexiglas cage system) at the onset of thrips infestation (4 weeks old).
as §2, with “manner. Plants were sprayed twice, one and eight days before inoculation.” for “manner.”
F. occidentalis was reared on bean pods in an incubator at 28° C.; 70% RH and 16:8 L:D. For inoculation of the PA-treated (300 μM) or Control plants, 10 females (two days old since turning adult) were transferred with a fine brush to a pepper plant inside a Plexiglas cage. After four days, all females were removed, while their progeny was counted three days later.

Rhopalosiphum padi [5] = assay: Bird cherry-oat aphid reproduction on wheat, first experiment; format: in vivo; details: 300 μM foliar spray, ten days
Procedure: as §1, §2
as §3, with “first” for “second”

Bemisia tabaci = assay: Tobacco whitefly egg development on cotton after foliar spray; format: in vivo; details: 300 μM foliar spray
Procedure: Cotton seeds were germinated in individual pots filled with potting soil and placed in a greenhouse with supplemental lighting (16 hours of light per day).
(§4) A 100 mM piperonylic acid stock was prepared by dissolving piperonylic acid (Sigma-Aldrich, Saint-Louis, USA) in DMSO (Duchefa Biochemie, Haarlem, the Netherlands). Before use, this stock solution was diluted with distilled water to a concentration of 300 μM and mixed with 0.1 v/v % Tween 20. Working solutions of 1000 μM PA (Aculops experiment) were prepared in a similar manner from a 300 mM stock solution. The resulting spraying solution was applied to plants until run-off using an atomizer. As a control, a solution consisting of an equivalent amount of DMSO and Tween 20 was used in the same manner. Plants were sprayed twice, one and eight days before inoculation. The tomato plants used in the spider mite experiment were sprayed a final time five days after inoculation, but only on the non-inoculated leaves to avoid direct effects of the spray on the mites.
B. tabaci (biotype Q) was reared on cotton plants under controlled laboratory conditions. Approximately sixty mixed-sex adults were collected and placed in ventilated vials attached to the leaves of two-week old cotton plants. After being allowed to oviposit for 24 hours, the adults were removed. Eight days after oviposition, leaves were detached and the number of unhatched eggs, crawlers and nymphs per plant was recorded.

Steneotarsonemus spinki = assay: Greenhouse experiment: rice yield and fertility under panicle rice mite stress; format: in vivo
Procedure: Rice seeds (cv. Kitaake) were sterilized and germinated on wet paper in the dark at 30° C. Seedlings were transferred to sterilized potting soil and placed in a climate-controlled compartment at the Ghent University greenhouse complex (Melle, Belgium). The compartment was known to host a natural mite infestation; the causal mite had previously been identified as Steneotarsonemus spinki by professor Thomas van Leeuwen of the agrozoology lab at Ghent University. Pots were arranged in a completely randomized manner in the same tray.
To determine the effects of C4H inhibition on yield and fertility in the presence of mites, rice (Oryza sativa cv. Kitaake) was grown in a greenhouse until maturity and treated with a control or 300 μM PA foliar spray at bi-weekly intervals. This greenhouse is naturally infested with the panicle rice mite (Steneotarsonemus spinki).

[6] = tested on: Arabidopsis thaliana seedlings; assay: Primary root elongation of Arabidopsis thaliana seedlings (IC50-root); format: in vivo; details: continuous exposure of seedlings, unpublished data, read-out: IC50-root (dose required to reduce primary root elongation by 50%)
Tetranychus urticae [7] = assay: Acute (direct) toxicity to spider mites sprayed on leaf discs; format: in vivo; details: 300 μM spray, after 24 h
Procedure: Tetranychus urticae—Spider mites of a laboratory reference strain were collected and placed on arenas consisting of a square bean leaf disc, placed on wet cotton wool and lined with paper tissue. Each arena received 25 to 30 adult female mites. The arenas were then sprayed in a custom-build spray tower with either 300 μM PA or control solution, six replicates each. The mites were incubated at 25° C., 18:6 L:D. Mortality was scored after 24 h. Mites were scored as either drowned (in water barrier), alive or dead (not moving its own body length within 10 seconds after prodding with a tiny brush).
T. urticae—Direct toxicity of PA to spider mites was evaluated by spraying mites on leaf disks with either 300 μM PA or control solution.

Aculops lycopersici [8] = assay: Acute (direct) toxicity to russet mites sprayed on leaf disks; format: in vivo; details: 300 μM spray, after 24 h
Procedure: Aculops lycopersici—Tomato russet mites were collected from a lab culture and transferred to a tomato leaf disk placed on agar. Each disk received 25 to 30 adult mites. The disks with mites were then sprayed in a custom-build spray tower with either 300 μM PA or control solution, six replicates each. The russet mites were incubated at 25° C., 18:6 L:D. Mortality was scored after 24 h. Mites were scored as either lost (in agar barrier), alive or dead.
A. lycopersici—Direct toxicity of PA to russet mites was evaluated by spraying mites on leaf disks with either 300 μM PA or control solution.

Aculops lycopersici [9] = assay: Tomato russet mite population growth on tomato; format: in vivo; details: ten days after inoculation with 30 mites
Procedure: as §4
A. lycopersici was reared on tomato plants in an incubator at 27° C.; 50% RH and 16:8 L:D. For inoculation of the PA-treated (300 μM or 1000 μM) or Control plants, 30 mites were transferred with a fine brush to a small leaf disk (1 cm), which was then placed on top of the plants. The mites were allowed the reproduce on the tomato plants during ten days, after which the total number of mites was compared.

Tetranychus urticae [10] = assay: Two-spotted spider mite reproduction on tomato after foliar spray; format: in vivo; details: 300 μM foliar spray, ten days after inoculation with ten females
Procedure: Tomato (cv. Moneymaker) seeds were obtained from Vreeken's Zaden (Dordrecht, the Netherlands). Seeds were germinated on potting soil at 22° C.; seedlings were then transferred to individual pots filled with potting soil and placed in a growth chamber at 24° C. with 16 hours per day of fluorescent light.
as §2, with “atomizer.” for “atomizer. As a control, a solution consisting of an equivalent amount of DMSO and Tween 20 was used in the same manner.”
Tomato plants in the early four-leaf stage were inoculated with T. urticae by placing ten adult females on the second leaf of each plant. […] All moving mites present on the leaf were counted (regardless of life stage).
Images of tomato leaves damaged by S. exigua were analyzed using the ImageJ software. For T. urticae damage, the total area of the second leaf of each plant was quantified using the polygon selection tool. Then, the total area of chlorotic patches on the leaf was measured in the same manner and the ratio of both values was calculated to obtain the percentage of chlorotic leaf.

[11] = rice, 300 μM foliar spray bi-weekly, three months after emergence

O=C(O)c1ccc(I)cc1 [4-IBA, 4-iodobenzoic acid]
increase of the number of non-lignified endodermal cells in the Casparian strip region [1]: 57%

O=C(O)C=Cc1ccc2c(c1)OCO2 [MDCA, 3,4-methylenedioxycinnamic acid]
increase of C4H expression in the root system (C4H gene): three-fold | IC50 [2]: 5.07 µM | increase of the number of non-lignified endodermal cells in the Casparian strip region [1]: 104%

O=C(O)c1ccc2c(c1)OCO2 [PA, Piperonylic acid]
L3 larvae alive (Spodoptera exigua; after seventy-two hours): 27 | L3 larvae alive (Spodoptera exigua; after twenty-four hours): 28 | change in reproductive factor of R. padi vs control (Rhopalosiphum padi [3]): 29% | number of thrips larvae recovered (mean±SE) [4]: 11.33±1.82 larvae | change in reproductive factor of R. padi vs control (Rhopalosiphum padi [5]): −32% | number of eggs deposited on cotton plants (Bemisia tabaci; 24 hours oviposition): did not affect | eggs failed to hatch (Bemisia tabaci; eight days after oviposition (control 3%)): 20% | eggs developed into nymphs (Bemisia tabaci; eight days after oviposition (control 16%)): 9% | increase of C4H expression in the root system (C4H gene): ten-fold | change in number of seeds vs control (Steneotarsonemus spinki; rice cv. Kitaake, 300 μM foliar spray at bi-weekly intervals, three months after emergence): +104% | empty panicles vs control (Steneotarsonemus spinki; [11]): fewer empty panicles | tillers developed vs control (Steneotarsonemus spinki; [11]): more tillers | change in seed germination rate vs control (Steneotarsonemus spinki; seeds from treated plants, seven days on wet paper): +45% | increase of the number of non-lignified endodermal cells in the Casparian strip region [1]: 134% | IC50 [6]: 40 µM | spider mite mortality vs control (Tetranychus urticae [7]): No significant difference | russet mite mortality vs control (Aculops lycopersici [8]): No significant difference | reduction of russet mite population growth vs control (Aculops lycopersici [9]; 300 μM, not significant (p=0.052)): about 50% | reduction of russet mite population growth vs control (Aculops lycopersici [9]; 1000 μM, not significant (p=0.089)): about 50% | change in number of mites present on the leaf vs control (Tetranychus urticae [10]): −49% | change in percentage of visibly chlorotic leaf area vs control (Tetranychus urticae [10]): −62%
